These results are taken from the OligoGym collection.

Several values for one entry are separate records, joined by “and”; a condition that tells them apart may be missing. Equal values may be shown once. After the bases stand the sugars from the 5' end (letter, count) and the backbone: PS all phosphorothioate, else s phosphorothioate and o phosphodiester by linkage. Methylation of C is not given here. e = 2'-O-(2-methoxyethyl) (MOE); k = constrained ethyl (cEt); d = 2'-deoxy (DNA)

The series concerns the target IRF5. As to conditions: ASO.

“ACATCTCCACATCAGT (sugars kkddddddddkekekk, PS)” displayed a target mRNA inhibition (KARPAS-229, 4 µM) of 15%.
For “TGTCTAGTGTCATGGA (sugars k3 d9 k3 e1, PS)”, under “KARPAS-229, 4 µM”, the target mRNA inhibition stood at 39%.
The same measure, in the same setting: the figure for “TCTGGCCCTTTTGGAA (sugars kkddddddddkekekk, PS)” is 0%; for “CTTGGTCTTGACCTCC (sugars k2 d8 e4 k2, PS)” it is 20%; for GGAGTGAGACGAGCAA (sugars k3 d10 k3, PS) it is 37%.
On to TTTCTTGTCTAGTGTC (sugars k3 d10 k3, PS), for which, where the note is “KARPAS-229, 4 µM”, the target mRNA inhibition turned out to be 53%.
Turning to GTGACTGTATTACCTA (sugars k3 d10 k3, PS), the target mRNA inhibition was 9% (KARPAS-229, 0.44444 µM); 39% (KARPAS-229, 1.33333 µM); 62% and 70% (KARPAS-229, 4 µM); 81% (KARPAS-229, 12 µM).
“ACCACTGTGTACCCCA (sugars kkkddddddddkekek, PS)”: the target mRNA inhibition (KARPAS-229, 4 µM) was 6%.
Consider “ATTTCTGCTCCAGGTT (sugars kdddddddddkekeke, PS)”, for which the target mRNA inhibition (KARPAS-229, 4 µM) is 13%.
Still for that read-out and setting: the figure for “GATGGTGTTATCTCCG (sugars kkddddddddddkeke, PS)” is 0%.
Regarding “GTCTTGACCTCCCGCT (sugars k2 d9 e3 k2, PS)”, the target mRNA inhibition reads like this: (KARPAS-229, 0.44444 µM) 22%; (KARPAS-229, 1.33333 µM) 32%; (KARPAS-229, 4 µM) 54% and 41%; (KARPAS-229, 12 µM) 58%.
“AGCTTGGTCTTGACCT (sugars kekdddddddddeekk, PS)” had a target mRNA inhibition (KARPAS-229, 4 µM) of 38%.
Still for that read-out and setting: with “GCTTGGTCTTGACCTC (sugars kddddddddddkekek, PS)” the figure was 18%; with “GAGTCATGGGCTGAGG (sugars kkdddddddddkdkdk, PS)”, 31%; with “TTGTCTAGTGTCATGG (sugars kdddddddddkekeke, PS)”, 8%.
Still for that read-out and setting: with “CCTTCTGCAGGGAGTC (sugars kkddddddddddkeke, PS)” the figure was 0%.
Still for that read-out and setting: with “ATCACCACTGTGTACC (sugars k3 d9 k3 e1, PS)” the figure was 19%; with “CACTGACACAGGCGGA (sugars kkddddddddkekekk, PS)”, 0%; with “ATCACCACTGTGTACC (sugars kkddddddddkekekk, PS)”, 0%.
“TCACCACTGTGTACCC (sugars kkddddddddkekekk, PS)” came in with a target mRNA inhibition (KARPAS-229, 4 µM) of 0%.
Take “GGTTCTTGGACTCTCA (sugars k2 d9 e3 k2, PS)”: the target mRNA inhibition was 46% (KARPAS-229, 0.44444 µM); 64% (KARPAS-229, 1.33333 µM); 48% and 73% (KARPAS-229, 4 µM); 84% (KARPAS-229, 12 µM).
“GGTCTGGCCCTTTTGG (sugars kddddddddddkekek, PS)” came in with a target mRNA inhibition (KARPAS-229, 4 µM) of 0%.
For the setting “KARPAS-229, 4 µM”, “AGGAAGTGAGTCTCAA (sugars kkddddddddddkeke, PS)” displayed a target mRNA inhibition of 39%.
AGCTTGGTCTTGACCT (sugars k3 d10 k3, PS): the target mRNA inhibition (KARPAS-229, 0.44444 µM) was determined as 33%; the target mRNA inhibition (KARPAS-229, 1.33333 µM) was 41%; the target mRNA inhibition (KARPAS-229, 12 µM) amounted to 55%.
AGACGAGCAAAGGGTG (sugars k3 d10 k3, PS) showed a target mRNA inhibition (KARPAS-229, 4 µM) of 35%.
Still for that read-out and setting: with “ACCACTGTGTACCCCA (sugars kdddddddddkekeke, PS)” the figure was 40%.
In the case of “AGGAAGTGAGTCTCAA (sugars kekdddddddddeekk, PS)”, the target mRNA inhibition (KARPAS-229, 4 µM) is 43%.
Same read-out and setting: with “CTTGGTCTTGACCTCC (sugars kkkddddddddkdkdk, PS)” the figure was 19%.
